Assay results from US20240059693A1, “FUSED BICYCLIC PYRAZOLE DERIVATIVES AND METHODS OF USE THEREOF FOR THE TREATMENT OF HERPESVIRUSES” (Merck Sharp & Dohme LLC, priority 2020, published 2024).
Read-outs that look alike come from different tables or passages of the source.

Key:
[1] = biological target: T1, Human cytomegalovirus DNA polymerase (Human cytomegalovirus, UniProt P08546); test: HCMV polymerase assay (AlphaLISA); format: biochemical; conditions: HCMV DNA polymerase 0.2 nM, 60 minutes at 37° C.; read-out: CMV (IC50)
T1 construct: made in house; host or cells: SF21 insect cells (baculovirus vector)
Protocol: Human cytomegalovirus and varicella zoster virus DNA polymerases were expressed via baculovirus vector in SF21 cells and purified. Heterodimeric nucleic acid substrate used in the herpesvirus polymerase reactions was generated by annealing a 59-mer template to a 17-mer digoxigenin-labeled primer. Polymerase (HCMV final concentration of 0.2 nM; VZV final concentration of 0.4 nM) was combined with an inhibitor compound or DMSO in assay buffer (10 mM HEPES, pH 7.5, 25 mM KCl, 25 mM NaCl, 5 mM MgCl2, 5% glycerol, 0.67 mg/ml bovine serum albuminutes, and 1 mM tris(2-carboxyethyl)phosphine), and this mixture was pre-incubated for 30 minutes at room temperature in 384-well microtiter plates. The polymerization reaction was initiated by the addition of template/primer substrate (final concentration: 1.6 nM), and dNTPs (final concentration: 24 nM dCTP, 24 nMdGTP, 16 nM dATP, 16 nM dTTP, and 0.8 nM biotin-dUTP). After 60 minutes incubation at 37° C., reactions were terminated with quench buffer (25 mM HEPES pH 7.5, 100 mM NaCl, 0.25% Tween-20, 12 mM EDTA, and 1 mg/ml bovine serum albumin). Incorporation of biotinylated UTP was detected with 2.5-ug/ml anti-DIG AlphaLISA acceptor beads and 5-10 ug/ml streptavidin AlphaLISA donor beads (Perkin Elmer). Compound effects were normalized to the window defined by the controls (DMSO only and pre-quenched wells) and were fit using a 4-parameter algorithm to report an IC50.

HCMV Strain AD169 = test: Viral qPCR assay, HCMV in MRC-5 cells; format: cell-based, Human cytomegalovirus; conditions: read-out: CMV MRC5 Cell (EC50)
Protocol: (§1) MRCS cells, Vero cells, and MeWo cells were obtained from ATCC and were maintained at 37° C./5% CO2/90% relative humidity in Minimal Essential Medium with 10% fetal bovine serum, […] L-glutamine, 100 units/ml penicillin and 100 ug/ml streptomycin. Assay plates were prepared by dispensing compounds dissolved in DMSO into wells of 384 well collagen-coated plates using an ECHO acoustic dispenser. Each compound was tested in a 10-point, serial 3-fold dilution. Controls included uninfected cells and infected cells treated only with DMSO. Assays were initiated by mixing selected cells, in suspension, with virus, and dispensing 50 μl/well infected cells to pre-plated compounds. Plates were incubated at 37° C./5% CO2/90% relative humidity for ˜72 hrs to permit genomic replication, and infected cells were lysed by the addition of an equal volume of lysis buffer (10 mM Tris-HCl, pH8, 50 mM KCl, 2 mM MgCl2, 0.45% NP-40, 0.45% Tween-20, and 100 μg/ml proteinase K). An aliquot of the lysate was transferred to a 384-well PCR plate and incubated at 56° C. for 1 hour and then at 95° C. for 10 min. Levels of a viral gene and of the cellular control, PPIA (Thermo Fisher Assay ID=Hs04194521_s1), were measured in separate 10 μL qPCR assays using TaqMan® Gene Expression Master Mix (Applied Biosystems), and an 7900HT Fast Real-Time PCR System with 384-Well Block Module. 7-point, serial 10-fold dilutions of a plasmid standard were run on each plate to generate a standard curve, and genome copies numbers were calculated by plotting experimental Ct onto linear regression of the standard curve. Viral genome copy numbers were normalized by cellular control copy number, and compound effects were normalized to the window defined by the controls. Calculated % effects were fit using a 4-parameter algorithm, and EC50 was reported.
as §1, with “gene” for “gene and of the cellular control, PPIA (Thermo Fisher Assay ID=Hs04194521_s1),”, “in” for “in separate”, “Compound effects on viral” for “Viral”, “number” for “numbers were normalized by cellular control copy number, and compound effects”
HCMV: Strain AD169 Street was assayed in MRC-5 cells and was used at 0.05-0.1 pfu/cell. The assays were performed in either growth media or in the same media with 50% fetal bovine serum. Primer-probe set was Thermo Fisher Assay ID=AIFATFK.

[2] = Human betaherpesvirus 5, AD169, MRC5, 72 h

T1 sequence (P08546 whole entry): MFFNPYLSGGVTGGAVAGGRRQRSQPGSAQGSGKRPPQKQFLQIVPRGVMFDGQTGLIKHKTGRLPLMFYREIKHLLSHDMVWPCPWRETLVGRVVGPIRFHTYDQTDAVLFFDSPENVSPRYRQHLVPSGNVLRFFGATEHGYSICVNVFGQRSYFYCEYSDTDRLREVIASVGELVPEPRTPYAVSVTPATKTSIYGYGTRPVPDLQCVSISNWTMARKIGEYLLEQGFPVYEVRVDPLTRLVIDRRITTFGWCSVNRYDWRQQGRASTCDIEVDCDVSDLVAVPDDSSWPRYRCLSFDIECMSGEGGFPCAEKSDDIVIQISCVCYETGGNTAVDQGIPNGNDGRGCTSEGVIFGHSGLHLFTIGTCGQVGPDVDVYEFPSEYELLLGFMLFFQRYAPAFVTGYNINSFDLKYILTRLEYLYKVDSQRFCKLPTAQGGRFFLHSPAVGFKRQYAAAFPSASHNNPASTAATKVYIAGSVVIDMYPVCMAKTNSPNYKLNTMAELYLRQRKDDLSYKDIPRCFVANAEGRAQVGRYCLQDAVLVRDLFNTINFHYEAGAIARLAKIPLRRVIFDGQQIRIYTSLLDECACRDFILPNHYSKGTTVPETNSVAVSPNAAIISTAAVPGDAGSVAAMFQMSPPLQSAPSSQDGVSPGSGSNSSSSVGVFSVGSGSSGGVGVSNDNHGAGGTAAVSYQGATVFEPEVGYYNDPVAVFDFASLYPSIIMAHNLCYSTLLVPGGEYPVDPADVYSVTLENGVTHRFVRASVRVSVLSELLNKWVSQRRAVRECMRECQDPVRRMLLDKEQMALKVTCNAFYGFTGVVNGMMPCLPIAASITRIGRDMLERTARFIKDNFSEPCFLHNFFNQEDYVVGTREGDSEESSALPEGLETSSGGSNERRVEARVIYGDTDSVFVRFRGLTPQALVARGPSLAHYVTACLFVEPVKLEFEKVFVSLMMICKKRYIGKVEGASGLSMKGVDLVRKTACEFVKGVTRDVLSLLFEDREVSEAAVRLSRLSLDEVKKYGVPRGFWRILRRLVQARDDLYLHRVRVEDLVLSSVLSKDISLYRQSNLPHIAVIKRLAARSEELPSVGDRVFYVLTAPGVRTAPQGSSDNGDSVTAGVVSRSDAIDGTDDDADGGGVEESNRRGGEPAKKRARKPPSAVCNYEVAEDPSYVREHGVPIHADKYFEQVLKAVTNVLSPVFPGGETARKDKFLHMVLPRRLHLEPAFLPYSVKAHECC

Row | IC50 [1] [nM] | Structure (SMILES) | EC50 (HCMV Strain AD169; MRC5 cells, ~72 hrs) [nM] | EC50 (HCMV Strain AD169; [2]) [nM]
1 | 958 | CC([C@@H]1CCC(=O)N1)N1Cc2c(C(=O)NCc3ccc(Cl)cc3)nn(-c3nccs3)c2C1 (single isomer, unassigned) [Compound 6] | 5870 | –
2 | 146 | O=C1CC[C@@H](CN2Cc3c(C(=O)NCc4ccc(Cl)cc4)nn(C4CCC(F)(F)C4)c3C2)N1 (single isomer, unassigned) [Compound 54] | 1580 | –
3 | 13300 | CC(C1CC(F)(F)C(=O)N1)N1Cc2c(C(=O)NCc3ccc(Cl)cc3)nn(C)c2C1 (single isomer, unassigned) [Compound 83] | – | 99000
4 | 800 | CCC(C1CCC(=O)N1)N1Cc2c(C(=O)NCc3ccc(Cl)cc3)nn(C)c2C1 (single isomer, unassigned) [Compound 89] | – | 7640
5 | 5770 | CC1c2c(c(C(=O)NCc3ccc(Cl)cc3)nn2C)CN1CC1CCC(=O)N1 (single isomer, unassigned) [Compound 102] | 71200 | –
6 | 1810 | CCC1c2c(c(C(=O)NCc3ccc(Cl)cc3)nn2C)CN1CC1CCC(=O)N1 (single isomer, unassigned) [Compound 104] | 38700 | –
7 | 702 | CC1c2c(c(C(=O)NCc3ccc(Cl)cc3)nn2C)CN1CC1CCC(=O)N1 (single isomer, unassigned) [Compound 108] | 1960 | –
8 | 566 | CC(C)[C@H]1c2c(c(C(=O)NCc3ccc(Cl)cc3)nn2C)CN1C(C)C1CCC(=O)N1 (single isomer, unassigned) [Compound 115] | – | 4240
9 | 10900 | CC(C)[C@H]1c2c(c(C(=O)NCc3ccc(Cl)cc3)nn2C)CN1C(C)C1CCC(=O)N1 (single isomer, unassigned) [Compound 116] | 99000 | –
10 | 680 | CC(C)[C@H]1c2c(c(C(=O)NCc3ccc(Cl)cc3)nn2C)CN1C(C)C1CCC(=O)N1 (single isomer, unassigned) [Compound 117] | 4640 | –
11 | 83.7 | CC(C)[C@H]1c2c(c(C(=O)NCc3ccc(Cl)cc3)nn2C)CN1C(C)C1CCC(=O)N1 (single isomer, unassigned) [Compound 118] | 1600 | –
12 | 7850 | CC(=O)OCC1c2c(c(C(=O)NCc3ccc(Cl)cc3)nn2C)CN1C[C@H]1CCC(=O)N1 (single isomer, unassigned) [Compound 119] | 99000 | –
13 | 13300 | Cn1nc(C(=O)NCc2ccc(Cl)cc2)c2c1C(CO)N(C[C@H]1CCC(=O)N1)C2 (single isomer, unassigned) [Compound 121] | – | 99000
14 | 19.2 | O=C1CC[C@H](CN2Cc3c(C(=O)NCc4ccc(Cl)cc4)nn(-c4ncc(CO)s4)c3C2)N1 [Compound 9] | – | 644
15 | 25.8 | O=C1CC[C@H](CN2Cc3c(C(=O)NCc4ccc(Cl)cc4)nn(-c4ncc[nH]4)c3C2)N1 [Compound 14] | – | 1030
16 | 31 | O=C1CC[C@H](CN2Cc3c(C(=O)NCc4ccc(Cl)cc4)nn(-c4nc(-c5ccccc5)cs4)c3C2)N1 [Compound 15] | – | 1100
17 | 36.1 | O=C1CC[C@H](CN2Cc3c(C(=O)NCc4ccc(Cl)cc4)nn(-c4ncc(O)cn4)c3C2)N1 [Compound 17] | – | 51400
18 | 157 | CC(C)(C)c1csc(-n2nc(C(=O)NCc3ccc(Cl)cc3)c3c2CN(C[C@H]2CCC(=O)N2)C3)n1 [Compound 21] | – | 2670
19 | 148 | Cn1nccc1-n1nc(C(=O)NCc2ccc(Cl)cc2)c2c1CN(C[C@H]1CCC(=O)N1)C2 [Compound 24] | – | 997

Row | IC50 [1] [nM] | Structure (SMILES) | EC50 (HCMV Strain AD169; MRC5 cells, ~72 hrs) [nM] | EC50 (HCMV Strain AD169; [2]) [nM]
20 | 87.5 | O=C1CC[C@H](CN2Cc3c(C(=O)NCc4ccc(Cl)cc4)nn([C@@H]4CCCOC4)c3C2)N1 [Compound 49] | – | 3540
21 | 125 | O=C1CC[C@H](CN2Cc3c(C(=O)NCc4ccc(Cl)cc4)nn(C4CCOCC4)c3C2)N1 [Compound 50] | – | 1480
22 | 129 | O=C1CC[C@H](CN2Cc3c(C(=O)NCc4ccc(Cl)cc4)nn([C@H]4CCCOC4)c3C2)N1 [Compound 51] | – | 1800
23 | 150 | O=C1CC[C@@H](CN2Cc3c(C(=O)NCc4ccc(Cl)cc4)nn([C@H]4CCCOC4)c3C2)N1 [Compound 52] | – | 885
24 | 124 | O=C1CC[C@@H](CN2Cc3c(C(=O)NCc4ccc(Cl)cc4)nn(C4CCOCC4)c3C2)N1 [Compound 53] | – | 2090
25 | 129 | CC(C)C(O)Cn1nc(C(=O)NCc2ccc(Cl)cc2)c2c1CN(C[C@H]1CCC(=O)N1)C2 (stereo partly shown) [Compound 56] | – | 1800
26 | 62.5 | Cn1nc(C(=O)NCc2ccc(C#N)c(F)c2)c2c1CN(C[C@H]1CCC(=O)N1)C2 [Compound 62] | – | –
27 | 64 | O=C(NCc1ccc(Cl)cc1)c1nn(CCNC(=O)C2CCC2)c2c1CN(Cc1c(F)cncc1F)C2 [Compound 64] | – | –
28 | 64.5 | CN(CCn1nc(C(=O)NCc2ccc(Cl)cc2)c2c1CN(Cc1ccncc1Cl)C2)C(=O)C1CCC1 [Compound 65] | – | –
29 | 119 | O=C(NCc1ccc(Cl)cc1)c1nn(CCNC(=O)C2CCC2)c2c1CN(Cc1ccnc(F)c1)C2 [Compound 67] | – | –
30 | 1710 | O=C(NCc1ccc(Cl)cc1)c1nn(CCNC(=O)C2CCC2)c2c1CN(Cc1ccncc1Cl)C2 [Compound 70] | – | –
31 | 976 | CC([C@@H]1CCC(=O)N1)N1Cc2c(C(=O)NCc3ccc(Cl)cc3)nn(C(F)F)c2C1 (stereo partly shown) [Compound 72] | – | –
32 | 815 | CC(C1CC(F)C(=O)N1)N1Cc2c(C(=O)NCc3ccc(Cl)cc3)nn(C)c2C1 (stereo not shown) [Compound 74] | 28100 | –
33 | 70.9 | CC(C1CC(F)C(=O)N1)N1Cc2c(C(=O)NCc3ccc(Cl)cc3)nn(C)c2C1 (stereo not shown) [Compound 75] | 2020 | –
34 | 557 | Cn1nc(C(=O)NCc2ccc(Cl)cc2)c2c1CN(C[C@H]1CC(F)(F)C(=O)N1)C2 [Compound 81] | – | 1280
35 | 13300 | CC(C1CC(F)(F)C(=O)N1)N1Cc2c(C(=O)NCc3ccc(Cl)cc3)nn(C)c2C1 (stereo not shown) [Compound 84] | 40000 | –
36 | 1050 | CC(C1CC(F)(F)C(=O)N1)N1Cc2c(C(=O)NCc3ccc(Cl)cc3)nn(C)c2C1 (stereo not shown) [Compound 85] | 3360 | –
37 | 174 | Cc1nnc2n1C(CN1Cc3c(C(=O)NCc4ccc(Cl)cc4)nn(C)c3C1)CC2 (stereo not shown) [Compound 97] | – | –
